Experimental data: patent US20050170041A1, “Chewing gum compositions comprising monatin and methods for making same” (Cargill, Inc., priority 2003, published 2005)
Each block holds one compound with its values, some of them ahead of it. Residues, ends and D or L forms follow the SMILES beside them.

What was measured:
[1] = Sensory evaluation of sweeteners in iced tea; type: in vivo; settings: 200 ml serving, aspartame 450 ppm, monatin 40 ppm, panel n=6; for Comments: sweetness and flavor profile: sucralose 170 ppm
Experimental: Monatin formulations, including R,R monatin or R,R monatin/erythritol combinations, were assessed relative to other known sweeteners (aspartame and sucralose) in iced tea. The key sensory parameters assessed included sweetness quality, aftertaste, bitter taste and its aftertaste. Qualitative evaluation has been carried out.
An ice tea formulation was developed to evaluate sweetener performance (Table 7).
Sweeteners were added to tea at the following concentrations:
The evaluation of ice tea drinks was carried out by a panel (n=6) of experienced sensory evaluators.

[2] = Sweetness comparison procedure against sucrose reference solutions (sensory panel); type: in vivo; settings: experienced sensory evaluators
Experimental: The S,S stereoisomer of monatin is approximately 50-200 times sweeter than sucrose by weight. The R,R stereoisomer of monatin is approximately 2000-2400 times sweeter than sucrose by weight. The sweetness of the monatin is calculated using experienced sensory evaluators in a sweetness comparison procedure, where a test sweetener solution is matched for sweetness intensity against one of a series of reference solutions.
Specifically, one may assess sweetness of a sweetener relative to sucrose by using a panel of trained sensory evaluators experienced in the sweetness estimation procedure. All samples (in same buffers) are served in duplicate at a temperature of 22° C.±1° C. Sample solutions may be prepared, for example, using a buffer comprising 0.16% (v/w) citric acid and 0.02% (v/w) sodium citrate at ˜pH 3.0. Test solutions, coded with 3 digit random number codes, are presented individually to panelists, in random order. Sucrose reference standards, ranging from 2.0-10.0% (w/v) sucrose, increasing in steps of 0.5% (w/v) sucrose are also provided. Panelists are asked to estimate sweetness by comparing the sweetness of the test solution to the sucrose standards. […]
Sucrose equivalent value (SEV) (e.g., % sucrose), determined by the panel of trained sensory evaluators, is plotted as a function of monatin concentration to obtain a dose response curve. […]

[3] = Sensory stability of monatin and aspartame at pH 2.5, 3.0, 4.0 at 40° C.; type: physicochemical; settings: for Rate constant (k) of sweetness loss: 40° C., pseudo-first order assumed; for Sweetness Retained: after 100 days storage at 40° C.; for SEV Aspartame / Retention of Aspartame Sweetness: stored at 40° C., aspartame 400 ppm
Experimental: The sensory stability of monatin solutions prepared at pH 2.5, 3.0 and 4.0 and stored at 40° C. was monitored for 100 days. Loss of sweetness from these solutions was compared with the losses of sweetness from aspartame solutions prepared and stored under identical conditions.
The sensory stability of monatin (8% SEV, ˜55 ppm, synthetic blend containing approximately 96% of the 2R,4R/2S, 4S enantiometric pair and 4% of the 2R,4S/2S,4R enantiometric pair) in phosphate/citrate buffers having a pH of 2.5, 3.0, and 4.0 was examined after storage at 40° C. The stability of monatin was compared to that of aspartame (400 ppm) in the same buffers. Three sucrose reference solutions were prepared in the same phosphate/citrate buffers as the monatin and aspartame solutions. All prepared solutions were stored in the dark.
The sweetness of each sweetener relative to sucrose was assessed in duplicate by a panel (n=8) of trained sensory evaluators experienced in the sweetness estimation procedure. All samples (in the same buffers) were served in duplicate at a temperature of 22° C.±1° C. Monatin (test) solutions, coded with 3 digit random number codes were presented individually to panelists, in random order. Sucrose reference standards, ranging from 4.0-10.0% (w/v) sucrose, increasing in steps of 0.5% (w/v) sucrose were also provided. Panelists were asked to estimate sweetness by comparing the sweetness of the test solution to the sucrose standards. This was carried out by taking 3 sips of the test solution, followed by a sip of water, followed by 3 sips of sucrose standard followed by a sip of water, etc. Panelists were encouraged to estimate the sweetness to one decimal place, e.g., 6.8, 8.5. A five minute rest period was imposed between evaluating the test solutions. Panelists were also asked to rinse well and eat a cracker to reduce any potential carry over effects.
If a pseudo-first order breakdown reaction is assumed, a plot of logn percentage retention versus time (logn % RTN v. t) allows estimation of the half-life (t½) and rate constant (k) of sweetness loss under any given set of conditions. In so doing, the kinetics of monatin and aspartame sweetness loss may be summarized as follows in Table 14.

Structure (SMILES): OC[C@H]1O[C@H](O[C@]2(CCl)O[C@H](CCl)[C@@H](O)[C@@H]2O)[C@H](O)[C@@H](O)[C@H]1Cl [Sucralose]
Comments: sweetness and flavor profile [1]: Delay in sweetness onset means first

Structure (SMILES): N[C@@H](C[C@@](O)(Cc1c[nH]c2ccccc12)C(=O)O)C(=O)O (single isomer, unassigned) [R,R stereoisomer of monatin]
sweetness relative to sucrose by weight [2]: 2000-2400 times sweeter than sucrose

Rate constant (k) of sweetness loss ([3]; pH 2.5): 0.013 day⁻¹
Sweetness Retained ([3]; pH 2.5): 11%
Retention of Aspartame Sweetness ([3]; pH 2.5, day 1): 94.0%
Retention of Aspartame Sweetness ([3]; pH 2.5, day 2): 92.6%
Retention of Aspartame Sweetness ([3]; pH 2.5, day 3): 89.9%
Retention of Aspartame Sweetness ([3]; pH 2.5, day 4): 85.7%
Retention of Aspartame Sweetness ([3]; pH 2.5, day 7): 81.9%
Retention of Aspartame Sweetness ([3]; pH 2.5, day 8): 81.5%
Retention of Aspartame Sweetness ([3]; pH 2.5, day 9): 81.3%
Retention of Aspartame Sweetness ([3]; pH 2.5, day 11): 79.8%
Retention of Aspartame Sweetness ([3]; pH 2.5, day 50): 57.1%
Retention of Aspartame Sweetness ([3]; pH 2.5, day 100): 10.9%
Rate constant (k) of sweetness loss ([3]; pH 3.0): 0.009 day⁻¹
Sweetness Retained ([3]; pH 3.0): 31%
Retention of Aspartame Sweetness ([3]; pH 3.0, day 1): 96.5%
Retention of Aspartame Sweetness ([3]; pH 3.0, day 2): 96.1%
Retention of Aspartame Sweetness ([3]; pH 3.0, day 3): 92.3%
Retention of Aspartame Sweetness ([3]; pH 3.0, day 4): 89.9%
Retention of Aspartame Sweetness ([3]; pH 3.0, day 7): 86.3%
Retention of Aspartame Sweetness ([3]; pH 3.0, day 8): 82.9%
Retention of Aspartame Sweetness ([3]; pH 3.0, day 9): 83.1%
Retention of Aspartame Sweetness ([3]; pH 3.0, day 11): 81.5%
Retention of Aspartame Sweetness ([3]; pH 3.0, day 50): 65.9%
Retention of Aspartame Sweetness ([3]; pH 3.0, day 100): 30.8%
Rate constant (k) of sweetness loss ([3]; pH 4.0): 0.005 day⁻¹
Sweetness Retained ([3]; pH 4.0): 58%
Retention of Aspartame Sweetness ([3]; pH 4.0, day 3): 95.1%
Retention of Aspartame Sweetness ([3]; pH 4.0, day 8): 87.8%
Retention of Aspartame Sweetness ([3]; pH 4.0, day 11): 84.8%
Retention of Aspartame Sweetness ([3]; pH 4.0, day 17): 81.0%
Retention of Aspartame Sweetness ([3]; pH 4.0, day 24): 82.4%
Retention of Aspartame Sweetness ([3]; pH 4.0, day 50): 74.5%
Retention of Aspartame Sweetness ([3]; pH 4.0, day 100): 57.7%
Structure (SMILES): COC(=O)[C@H](Cc1ccccc1)NC(=O)[C@@H](N)CC(=O)O [Aspartame, reference compound] (H-Asp-Phe-OMe)
Comments: flavor enhancement (lemon flavor notes) [1]: tea flavor. No evidence of flavor
Comments: sweetness and flavor profile [1]: Good temporal characteristics although
SEV Aspartame ([3]; pH 2.5, day 0): 7.34 % sucrose
SEV Aspartame ([3]; pH 2.5, day 1): 6.90 % sucrose
SEV Aspartame ([3]; pH 2.5, day 2): 6.80 % sucrose
SEV Aspartame ([3]; pH 2.5, day 3): 6.60 % sucrose
SEV Aspartame ([3]; pH 2.5, day 4): 6.29 % sucrose
SEV Aspartame ([3]; pH 2.5, day 7): 6.01 % sucrose
SEV Aspartame ([3]; pH 2.5, day 8): 5.98 % sucrose
SEV Aspartame ([3]; pH 2.5, day 9): 5.97 % sucrose
SEV Aspartame ([3]; pH 2.5, day 11): 5.86 % sucrose
SEV Aspartame ([3]; pH 2.5, day 50): 4.19 % sucrose
SEV Aspartame ([3]; pH 2.5, day 100): 0.80 % sucrose
SEV Aspartame ([3]; pH 3.0, day 0): 7.15 % sucrose
SEV Aspartame ([3]; pH 3.0, day 1): 6.90 % sucrose
SEV Aspartame ([3]; pH 3.0, day 2): 6.87 % sucrose
SEV Aspartame ([3]; pH 3.0, day 3): 6.60 % sucrose
SEV Aspartame ([3]; pH 3.0, day 4): 6.43 % sucrose
SEV Aspartame ([3]; pH 3.0, day 7): 6.17 % sucrose
SEV Aspartame ([3]; pH 3.0, day 8): 5.93 % sucrose
SEV Aspartame ([3]; pH 3.0, day 9): 5.94 % sucrose
SEV Aspartame ([3]; pH 3.0, day 11): 5.83 % sucrose
SEV Aspartame ([3]; pH 3.0, day 50): 4.71 % sucrose
SEV Aspartame ([3]; pH 3.0, day 100): 2.20 % sucrose
SEV Aspartame ([3]; pH 4.0, day 0): 7.10 % sucrose
SEV Aspartame ([3]; pH 4.0, day 3): 6.75 % sucrose
SEV Aspartame ([3]; pH 4.0, day 8): 6.23 % sucrose
SEV Aspartame ([3]; pH 4.0, day 11): 6.02 % sucrose
SEV Aspartame ([3]; pH 4.0, day 17): 5.75 % sucrose
SEV Aspartame ([3]; pH 4.0, day 24): 5.85 % sucrose
SEV Aspartame ([3]; pH 4.0, day 50): 5.29 % sucrose
SEV Aspartame ([3]; pH 4.0, day 100): 4.10 % sucrose

Structure (SMILES): NC(CC(O)(Cc1c[nH]c2ccccc12)C(=O)O)C(=O)O (single isomer, unassigned) [S,S stereoisomer of monatin]
sweetness relative to sucrose by weight [2]: 50-200 times sweeter than sucrose
